{
  "source": "patent US8722923B2",
  "about": "“Conjugates for treating neurodegenerative diseases and disorders” (Ramot at Tel-Aviv University Ltd., priority 2008, dated 2014); on Fur, observer 1: key: Split fur +; Shiny fur +++; on Fur, observer 2: key: Split fur +; Shiny fur +++; on Fur, observer 3: key: Split fur +; Shiny fur +++; on Fur, observer 4: key: Split fur +; Shiny fur +++; on Vitality, observer 3: key: slow motions +; normal motion +++; on Vitality, observer 4: key: slow motions +; normal motion +++",
  "key": {"[1]": {"test_system": "MPTP-Induced Parkinson's Disease Model in Mice", "experiment": "Example 2: MPTP acute toxicity model, tyrosine hydroxylase immunoreactive cells in the SNpc", "format": "in vivo, mice strain C57/bl", "details": "day 7, MPTP 4 x 20 mg/kg IP day 0, S.C once daily days 0-7, 40 mg/kg L-DOPA or equimolar", "experimental": "Mice were administered 4 injections IP of MPTP (each injection contained 20 mg/kg, 5 ml/kg) or saline alone (control) at 2 hours intervals on day 0. Mice were then administered subcutaneously test solutions (TI) (either saline, L-DOPA or BL-1023) once daily throughout the 8 successive treatment days (days 0-7). On day 7, the mice were sacrificed and their brains were removed for immunohistochemistry analysis of the number of tyrosine hyroxylase immunostained cells at the level of the Substantia Nigra (SNpc).\nYoung adult (7-8 weeks old) male mice strain C57/bl were acclimated for one week prior to MPTP initiation. During acclimation and throughout the entire study duration, animals were housed within a limited access rodent facility and kept in groups of maximum 5 mice in polypropylene cages (23×17×14 cm), fitted with solid bottoms and filled with wood shavings as bedding material. Animals were provided ad libitum a commercial rodent diet and free access to drinking water, supplied to each cage via polyethylene bottles with stainless steel sipper tubes. […]\nImmunohistochemistry staining was performed using Rabbit anti tyrosin hydroxylase (1:100). […] Quantitative analysis was effected by counting of immunoreactive cells at the widest dimension of the SNpc lateral to the roots of the third cranial nerve separating medial and lateral SNpc at the level of interpreduncular nucleus."}, "MPTP acute model mice [2]": {"test_system": "MPTP acute model mice", "experiment": "Experiment 1: open field test, MPTP acute model (AN-490)", "format": "in vivo, C57/BL/6J mice", "experimental": "The MPTP neurotoxin was administered on day 0, with 4 IP injections (each injection contained 20 mg/kg, 5 ml/kg) in saline. The various treatments or saline were administered on days 0, 1, 2, 3, 6, 7, 13 and 16. Each group of mice (n=6) was subjected, on days 3, 6, 8 and 16, to the open field test, and the following parameters were scored: the distance moved (FIGS. 2A and 2B), velocity (FIGS. 2C and 2D), time spent immobile (FIGS. 2E and 2F) and time spent in a high level of mobility (FIGS. 2G and 2H; strong mobility) during a period of 20 minutes. FIGS. 2A, 2C, 2E and 2G present the data obtained for the control mice, mice treated with L-DOPA and mice treated with AN-490. FIGS. 2B, 2D, 2F and 2H present the data obtained for control mice or mice treated with MPTP, MPTP with L-DOPA and MPTP with AN-490.\n(§1) Acute model: On day 1, C57/BL mice received 4× […] injections of 20 mg/kg MPTP-HCl (Sigma), dissolved in saline solution, at 2 hours intervals.\nThe open field test measures behavioral responses, locomotor activity, hyperactivity, and exploratory behaviors. Open field test is also used as a measure of anxiety. Mice tend to avoid brightly illuminated, novel, open spaces, so the open field environment acts as an anxiogenic stimulus and allows for measurement of anxiety-induced locomotor activity and exploratory behaviors. The apparatus for the open field test is a square (0.5×0.5 meter) made of white melamine. All activities were recorded by a video camera mounted above the open field and scored in real-time by a motion-recognition software package (Noldus, Holland) that detects and analyzes the movements of the animals. The video image of the open field arena was partitioned into equal-size squares zone. Total distance, average speed, rearing/elongation behavior, and time spent in various parts of the field (e.g. the border areas vs. mid-area) were measured. Testing was carried out in a temperature, noise and light controlled room."}, "[3]": {"test_system": "MPTP sub-acute model mice", "experiment": "Experiment 2: observed vitality signs (level of motion, fur appearance), MPTP sub-acute model", "format": "in vivo, C57/BL/6J mice", "details": "MPTP sub-acute model, per os treatment", "source_text": "FIG. […] 6 hereinabove. Six independent observers estimated the level of mice vitality by the level of motion of the mice (light purple, marked vitality) and fur appearance (dark purple). The results are an average of the observers' reports."}, "MPTP acute model mice [4]": {"test_system": "MPTP acute model mice", "experiment": "Experiment 3: RotaRod test, MPTP acute model (BL-1023*)", "format": "in vivo, C57/BL/6J mice", "details": "day 12, after initiation of treatment, per os", "experimental": "Mice were administered the following treatments: saline (Control), MPTP+saline (MPTP), MPTP+L-DOPA 30 mg/kg (MPTP+Dopa), MPTP+L-DOPA 30 mg/kg+GABA 18.4 mg/kg (MPTP+G+D) MPTP+BL1023* 48.4 mg/kg (MPTP+1023 30) and MPTP+BL-1023* 24.2 mg/kg (MPTP+BL1023 15). The MPTP neurotoxin was administered on day 0, with 4 IP injections (each injection contained 20 mg/kg, 5 ml/kg) in saline. The various treatments or saline were administered on day 7, 9, 11 and 13 (total of 4 treatments). Each group of mice (n=10) was subjected to the RotaRod test, on day 6 (before initiation of treatment, FIG. 9A) and day 12 (after initiation of treatment, FIG. 9B) and the observed average duration on Rod, tested three times, are presented.\nas §1\nRotoRod Test: The test measures and records motor coordination of rats and mice using the natural fear of falling motivation. RotoRod (San Diego Industries, San Diego, Calif., USA) was set on 16 rpm speed and accelerated to maximum speed of 25 rpm. The time until the mouse fall was measured up to maximum 4 minutes. The measurements were performed three times for each mouse and the average was calculated. […] When the animal falls from the rotating rod, the photo beams were broken and the Rota-Rod recorded the animal's latency to fall. […]"}, "[5]": {"details": "0.16 ionic strength and 25° C.; cited from earlier work"}},
  "data": [
    {"smiles": "N[C@@H](Cc1ccc(O)c(O)c1)C(=O)O", "note": "[L-DOPA, 3,4-dihydroxy-L-phenylalanine]", "values": [
      {"measurement": "Number of TH Cells", "setting": "[1]", "value": 39},
      {"measurement": "motility / motor activity in open field", "setting": "MPTP acute model mice [2]; MPTP treated mice, L-DOPA 25 mg/kg or AN-490 67.5 mg/kg by oral gavage, days 3, 6, 8, 16", "value": "lower the motility"},
      {"measurement": "motility in open field (distance moved, velocity, strong mobility, immobility)", "setting": "MPTP acute model mice [2]; mice not treated with MPTP, L-DOPA 25 mg/kg per os, vs naïve mice or equimolar AN-490", "value": "tendency toward increase in motility"},
      {"measurement": "Fur, observer 1", "setting": "[3]", "value": "+++"},
      {"measurement": "Fur, observer 2", "setting": "[3]", "value": "+++"},
      {"measurement": "Fur, observer 3", "setting": "[3]", "value": "+++"},
      {"measurement": "Fur, observer 4", "setting": "[3]", "value": "+++"},
      {"measurement": "Vitality, observer 3", "setting": "[3]", "value": "+++"},
      {"measurement": "Vitality, observer 4", "setting": "[3]", "value": "+++"},
      {"measurement": "latency in the rotarod test shortened by MPTP", "setting": "MPTP acute model mice [4]", "value": "not attenuated"},
      {"measurement": "pKNH3", "setting": "[5]", "value": 9.42},
      {"measurement": "pKOH", "setting": "[5]", "value": 8.97}
    ]}
  ]
}
